Source: patent publication US20110098296A1, “Thiazole And Oxazole Kinase Inhibitors” (priority 2007, published 2011)

Experiments:
Colo205 tumor cells = test: Method A: Methylene Blue Growth Inhibition Assay, Colo205; type: cell-based; conditions: Homo sapiens, COLO 205, 72 h, 3 days
BT474 tumor cells = test: Method B: CellTiter-Glo Growth Inhibition Assay, BT474; type: cell-based; conditions: Homo sapiens, BT-474, 72 h, 3 days
Summary of the method: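 Cells plated (BT474 3,000, HN5 500, Colo205 3,000 per well) in RPMI or DMEM with 10% FBS; compounds added next day, final DMSO 0.3%, then 3 days at 37° C, 5% CO2. Viability by CellTiter-Glo luminescence; percent inhibition versus vehicle, IC50 interpolated by nonlinear regression.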

IC50 (Colo205 tumor cells) [µM]	IC50 (BT474 tumor cells) [µM]	SMILES
< 0.1		COc1cc(Nc2nccc(-c3sc(N)nc3-c3cccc(NC(=O)c4c(F)cccc4F)c3)n2)cc(OC)c1OC [Example 16, N-[3-(2-Amino-5-{2-[(3,4,5-trimethoxyphenyl)amino]pyrimidiN-4-yl}-1,3-thiazol-4-yl)phenyl]-2,6-difluorobenzamide]
	> 1	Cc1nc(-c2cccc(NC(=O)c3cc(F)ccc3F)c2)c(-c2ccnc(Nc3ccc(OCCN(C)C)c(Cl)c3)n2)o1 [Example 142]
